According to ChEMBL document CHEMBL4627254, “Design and synthesis of (E)-1,2-diphenylethene-based EZH2 inhibitors” (Bioorg Med Chem Lett, 2020):

system: not listed separately; experiment: Antiproliferative activity against over expressing […] human WSU-DLCL2 cells; type: functional; conditions: WSUDLCL2

| Compound | IC50 |
| --- | --- |
| CCN(c1cc(/C=C/c2ccc(CN3C[C@@H](C)O[C@@H](C)C3)cc2)cc(C(=O)NCc2c(C)c3c([nH]c2=O)CCCC3)c1C)C1CCOCC1 | > 30 µM |
| CCN(c1cc(/C=C/c2ccc(CN3C[C@@H]4C[C@H]3CO4)c(F)c2)cc(C(=O)NCc2c3c(c(C)[nH]c2=O)CCCC3)c1C)C1CCOCC1 | 9.27 µM |
| CCN(c1cc(/C=C/c2cccc(CN(C)C)c2)cc(C(=O)NCc2c3c(c(C)[nH]c2=O)CCCC3)c1C)C1CCOCC1 | 1.61 µM |
| CCN(c1cc(/C=C/c2ccc(CN3CCOCC3)cc2)cc(C(=O)NCc2c(C)c3c([nH]c2=O)CCCC3)c1C)C1CCOCC1 | > 30 µM |
| CCN(c1cc(/C=C/c2ccc(N3CCOCC3)nc2)cc(C(=O)NCc2c3c(c(C)[nH]c2=O)CCCC3)c1C)C1CCOCC1 | 12.6 µM |
| CCN(c1cc(-c2ccc(CN3CCN(C)CC3)cc2)cc(C(=O)NCc2c3c(c(C)[nH]c2=O)CCCC3)c1C)C1CCOCC1 | 1.64 µM |
| CCN(c1cc(/C=C/c2ccc(N3CCOCC3)nc2)cc(C(=O)NCc2c(C)c3c([nH]c2=O)CCCC3)c1C)C1CCOCC1 | 25.8 µM |
| CCN(c1cc(/C=C/c2ccc(CN3C[C@H]4C[C@@H]3CO4)c(F)c2)cc(C(=O)NCc2c3c(c(C)[nH]c2=O)CCCC3)c1C)C1CCOCC1 | 5.85 µM |
| CCN(c1cc(/C=C/c2ccc(S(=O)(=O)N3CCOCC3)cc2)cc(C(=O)NCc2c(C)c3c([nH]c2=O)CCCC3)c1C)C1CCOCC1 | > 30 µM |
| CCN(c1cc(/C=C/c2cccc(CN3CCOCC3)c2)cc(C(=O)NCc2c3c(c(C)[nH]c2=O)CCCC3)c1C)C1CCOCC1 | > 30 µM |
| CCN(c1cc(/C=C/c2ccc(CN3CCN(C)CC3)cc2)cc(C(=O)NCc2c3c(c(C)[nH]c2=O)CCCC3)c1C)C1CCOCC1 | 2.58 µM |
| CCN(c1cc(/C=C/c2ccc(CN3CCC4(CC3)OCCO4)cc2)cc(C(=O)NCc2c3c(c(C)[nH]c2=O)CCCC3)c1C)C1CCOCC1 | 27.7 µM |
| CCN(c1cc(/C=C/c2ccc(CN3C[C@@H](C)O[C@@H](C)C3)cc2)cc(C(=O)NCc2c3c(c(C)[nH]c2=O)CCCC3)c1C)C1CCOCC1 | > 30 µM |

system: SUD4; experiment: Induction of apoptosis in human SUDHL4 cells assessed as early apoptotic cells at 4 uM after 6 days by AnnexinV/propidium iodide staining based flow cytometry analysis (reference value: 0.061 %); type: functional; conditions: not given

| Compound | Activity |
| --- | --- |
| CCN(c1cc(/C=C/c2cccc(CN(C)C)c2)cc(C(=O)NCc2c3c(c(C)[nH]c2=O)CCCC3)c1C)C1CCOCC1 | 0.369% |

system: SUD4; experiment: Induction of apoptosis in human SUDHL4 cells assessed as necrotic cells at 4 uM after 6 days by AnnexinV/propidium iodide staining based flow cytometry analysis (reference value: 0.737 %); type: functional; conditions: not given

| Compound | Activity |
| --- | --- |
| CCN(c1cc(/C=C/c2cccc(CN(C)C)c2)cc(C(=O)NCc2c3c(c(C)[nH]c2=O)CCCC3)c1C)C1CCOCC1 | 0.824% |

molecular target: T1, Histone-lysine N-methyltransferase EZH2 (Homo sapiens, UniProt Q15910); experiment: Inhibition of wild type EZH2 (unknown origin) by AlphaLISA assay; conditions: not given
Target sequence in this assay (Q15910 whole entry): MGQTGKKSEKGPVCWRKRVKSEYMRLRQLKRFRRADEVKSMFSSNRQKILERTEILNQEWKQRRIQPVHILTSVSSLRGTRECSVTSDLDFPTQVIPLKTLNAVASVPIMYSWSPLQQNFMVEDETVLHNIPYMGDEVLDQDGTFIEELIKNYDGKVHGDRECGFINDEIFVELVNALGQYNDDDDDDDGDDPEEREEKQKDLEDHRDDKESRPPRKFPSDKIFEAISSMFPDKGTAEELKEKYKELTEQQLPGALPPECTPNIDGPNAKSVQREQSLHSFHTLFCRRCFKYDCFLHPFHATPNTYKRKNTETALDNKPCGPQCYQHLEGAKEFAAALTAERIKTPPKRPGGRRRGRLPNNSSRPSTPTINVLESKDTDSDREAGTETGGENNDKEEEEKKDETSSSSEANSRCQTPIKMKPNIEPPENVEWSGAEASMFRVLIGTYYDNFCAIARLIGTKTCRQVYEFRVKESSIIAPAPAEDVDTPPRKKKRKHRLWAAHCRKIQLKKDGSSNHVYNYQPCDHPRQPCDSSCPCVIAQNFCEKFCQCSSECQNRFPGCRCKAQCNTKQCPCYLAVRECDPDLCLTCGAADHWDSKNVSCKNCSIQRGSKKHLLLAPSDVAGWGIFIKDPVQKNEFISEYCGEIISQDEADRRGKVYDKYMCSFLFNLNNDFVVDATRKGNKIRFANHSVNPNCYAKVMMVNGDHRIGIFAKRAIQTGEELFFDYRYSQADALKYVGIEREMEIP

| IC50 | Compound |
| --- | --- |
| 0.055 µM | CCN(c1cc(/C=C/c2ccc(CN3CCC4(CC3)OCCO4)cc2)cc(C(=O)NCc2c3c(c(C)[nH]c2=O)CCCC3)c1C)C1CCOCC1 |

system: SUD4; experiment: Induction of apoptosis in human SUDHL4 cells assessed as early apoptotic cells at 2 uM after 6 days by AnnexinV/propidium iodide staining based flow cytometry analysis (reference value: 0.061 %); type: functional; conditions: not given

| Compound | Activity |
| --- | --- |
| CCN(c1cc(/C=C/c2cccc(CN(C)C)c2)cc(C(=O)NCc2c3c(c(C)[nH]c2=O)CCCC3)c1C)C1CCOCC1 | 1.28% |

system: MV4-11; experiment: Antiproliferative activity against human MV4-11 cells; type: functional, cell-based; conditions: not given

| Compound | IC50 |
| --- | --- |
| CCN(c1cc(/C=C/c2ccc(CN3C[C@@H]4C[C@H]3CO4)c(F)c2)cc(C(=O)NCc2c3c(c(C)[nH]c2=O)CCCC3)c1C)C1CCOCC1 | 21.1 µM |
| CCN(c1cc(/C=C/c2ccc(N3CCOCC3)nc2)cc(C(=O)NCc2c3c(c(C)[nH]c2=O)CCCC3)c1C)C1CCOCC1 | > 30 µM |
| CCN(c1cc(-c2ccc(CN3CCN(C)CC3)cc2)cc(C(=O)NCc2c3c(c(C)[nH]c2=O)CCCC3)c1C)C1CCOCC1 | > 30 µM |
| CCN(c1cc(/C=C/c2ccc(N3CCOCC3)nc2)cc(C(=O)NCc2c(C)c3c([nH]c2=O)CCCC3)c1C)C1CCOCC1 | > 30 µM |
| CCN(c1cc(/C=C/c2ccc(CN3CCN(C)CC3)cc2)cc(C(=O)NCc2c3c(c(C)[nH]c2=O)CCCC3)c1C)C1CCOCC1 | > 30 µM |
| CCN(c1cc(/C=C/c2ccc(CN3CCC4(CC3)OCCO4)cc2)cc(C(=O)NCc2c3c(c(C)[nH]c2=O)CCCC3)c1C)C1CCOCC1 | 3.21 µM |
| CCN(c1cc(/C=C/c2ccc(CN3C[C@@H](C)O[C@@H](C)C3)cc2)cc(C(=O)NCc2c3c(c(C)[nH]c2=O)CCCC3)c1C)C1CCOCC1 | > 30 µM |

The remaining lines, values ahead:

| IC50 | Compound |
| --- | --- |
| 8.04 µM | CCN(c1cc(/C=C/c2ccc(CN3C[C@@H](C)O[C@@H](C)C3)cc2)cc(C(=O)NCc2c(C)c3c([nH]c2=O)CCCC3)c1C)C1CCOCC1 |
| 2.8 µM | CCN(c1cc(/C=C/c2cccc(CN(C)C)c2)cc(C(=O)NCc2c3c(c(C)[nH]c2=O)CCCC3)c1C)C1CCOCC1 |
| > 30 µM | CCN(c1cc(/C=C/c2ccc(CN3CCOCC3)cc2)cc(C(=O)NCc2c(C)c3c([nH]c2=O)CCCC3)c1C)C1CCOCC1 |
| > 30 µM | CCN(c1cc(/C=C/c2ccc(CN3C[C@H]4C[C@@H]3CO4)c(F)c2)cc(C(=O)NCc2c3c(c(C)[nH]c2=O)CCCC3)c1C)C1CCOCC1 |
| 4.44 µM | CCN(c1cc(/C=C/c2cccc(CN3CCOCC3)c2)cc(C(=O)NCc2c3c(c(C)[nH]c2=O)CCCC3)c1C)C1CCOCC1 |

system: SUD4; experiment: Induction of apoptosis in human SUDHL4 cells assessed as necrotic cells at 2 uM after 6 days by AnnexinV/propidium iodide staining based flow cytometry analysis (reference value: 0.737 %); type: functional; conditions: not given

| Compound | Activity |
| --- | --- |
| CCN(c1cc(/C=C/c2cccc(CN(C)C)c2)cc(C(=O)NCc2c3c(c(C)[nH]c2=O)CCCC3)c1C)C1CCOCC1 | 4.14% |

system: SUD4; experiment: Induction of apoptosis in human SUDHL4 cells assessed as late apoptotic cells at 2 uM after 6 days by AnnexinV/propidium iodide staining based flow cytometry analysis (reference value: 2.01 %); type: functional; conditions: not given

| Compound | Activity |
| --- | --- |
| CCN(c1cc(/C=C/c2cccc(CN(C)C)c2)cc(C(=O)NCc2c3c(c(C)[nH]c2=O)CCCC3)c1C)C1CCOCC1 | 69.1% |

system: SUD4; experiment: Induction of apoptosis in human SUDHL4 cells assessed as viable cells at 4 uM after 6 days by AnnexinV/propidium iodide staining based flow cytometry analysis (reference value: 92.7 %); type: functional; conditions: SU-DHL-4, 144 h, read-out: Activity

| Compound | viability at 4 µM |
| --- | --- |
| CCN(c1cc(/C=C/c2cccc(CN(C)C)c2)cc(C(=O)NCc2c3c(c(C)[nH]c2=O)CCCC3)c1C)C1CCOCC1 | 5.91% |

system: SUD4; experiment: Induction of apoptosis in human SUDHL4 cells assessed as late apoptotic cells at 4 uM after 6 days by AnnexinV/propidium iodide staining based flow cytometry analysis (reference value: 2.01 %); type: functional; conditions: not given

| Compound | Activity |
| --- | --- |
| CCN(c1cc(/C=C/c2cccc(CN(C)C)c2)cc(C(=O)NCc2c3c(c(C)[nH]c2=O)CCCC3)c1C)C1CCOCC1 | 92.9% |

system: SUD4; experiment: Induction of apoptosis in human SUDHL4 cells assessed as necrotic cells at 1 uM after 6 days by AnnexinV/propidium iodide staining based flow cytometry analysis (reference value: 0.737 %); type: functional; conditions: not given

| Compound | Activity |
| --- | --- |
| CCN(c1cc(/C=C/c2cccc(CN(C)C)c2)cc(C(=O)NCc2c3c(c(C)[nH]c2=O)CCCC3)c1C)C1CCOCC1 | 1.34% |

molecular target: T1, Histone-lysine N-methyltransferase EZH2; experiment: Inhibition of EZH2 in human SUDHL4 cells assessed as reduction in H3K27 methylation measured after 6 days by western blot analysis; type: cell-based; conditions: SUD4
Target sequence in this assay (Q15910 whole entry, looked up): as the sequence (Q15910 whole entry) above

| inhibition | Compound |
| --- | --- |
| Dose-dependent effect | CCN(c1cc(/C=C/c2cccc(CN(C)C)c2)cc(C(=O)NCc2c3c(c(C)[nH]c2=O)CCCC3)c1C)C1CCOCC1 |

system: SUD4; experiment: Induction of apoptosis in human SUDHL4 cells assessed as late apoptotic cells at 1 uM after 6 days by AnnexinV/propidium iodide staining based flow cytometry analysis (reference value: 2.01 %); type: functional; conditions: not given

| Compound | Activity |
| --- | --- |
| CCN(c1cc(/C=C/c2cccc(CN(C)C)c2)cc(C(=O)NCc2c3c(c(C)[nH]c2=O)CCCC3)c1C)C1CCOCC1 | 36.2% |

system: SUD4; experiment: Induction of apoptosis in human SUDHL4 cells assessed as early apoptotic cells at 1 uM after 6 days by AnnexinV/propidium iodide staining based flow cytometry analysis (reference value: 0.061 %); type: functional; conditions: not given

| Compound | Activity |
| --- | --- |
| CCN(c1cc(/C=C/c2cccc(CN(C)C)c2)cc(C(=O)NCc2c3c(c(C)[nH]c2=O)CCCC3)c1C)C1CCOCC1 | 0.112% |

system: SUD4; experiment: Induction of apoptosis in human SUDHL4 cells assessed as viable cells at 2 uM after 6 days by AnnexinV/propidium iodide staining based flow cytometry analysis (reference value: 92.7 %); type: functional; conditions: SU-DHL-4, 144 h, read-out: Activity

| Compound | viability at 2 µM |
| --- | --- |
| CCN(c1cc(/C=C/c2cccc(CN(C)C)c2)cc(C(=O)NCc2c3c(c(C)[nH]c2=O)CCCC3)c1C)C1CCOCC1 | 25.5% |

system: SUD4; experiment: Antiproliferative activity against over expressing […] human SUDHL4 cells; type: functional, cell-based; conditions: SU-DHL-4

| Compound | IC50 |
| --- | --- |
| CCN(c1cc(/C=C/c2ccc(CN3C[C@@H](C)O[C@@H](C)C3)cc2)cc(C(=O)NCc2c(C)c3c([nH]c2=O)CCCC3)c1C)C1CCOCC1 | > 30 µM |
| CCN(c1cc(/C=C/c2ccc(CN3C[C@@H]4C[C@H]3CO4)c(F)c2)cc(C(=O)NCc2c3c(c(C)[nH]c2=O)CCCC3)c1C)C1CCOCC1 | 15.4 µM |
| CCN(c1cc(/C=C/c2cccc(CN(C)C)c2)cc(C(=O)NCc2c3c(c(C)[nH]c2=O)CCCC3)c1C)C1CCOCC1 | 2.34 µM |
| CCN(c1cc(/C=C/c2ccc(CN3CCOCC3)cc2)cc(C(=O)NCc2c(C)c3c([nH]c2=O)CCCC3)c1C)C1CCOCC1 | 25.7 µM |
| CCN(c1cc(/C=C/c2ccc(N3CCOCC3)nc2)cc(C(=O)NCc2c3c(c(C)[nH]c2=O)CCCC3)c1C)C1CCOCC1 | 21.7 µM |
| CCN(c1cc(-c2ccc(CN3CCN(C)CC3)cc2)cc(C(=O)NCc2c3c(c(C)[nH]c2=O)CCCC3)c1C)C1CCOCC1 | 1.78 µM |
| CCN(c1cc(/C=C/c2ccc(N3CCOCC3)nc2)cc(C(=O)NCc2c(C)c3c([nH]c2=O)CCCC3)c1C)C1CCOCC1 | > 30 µM |
| CCN(c1cc(/C=C/c2ccc(CN3C[C@H]4C[C@@H]3CO4)c(F)c2)cc(C(=O)NCc2c3c(c(C)[nH]c2=O)CCCC3)c1C)C1CCOCC1 | > 30 µM |
| CCN(c1cc(/C=C/c2cccc(CN3CCOCC3)c2)cc(C(=O)NCc2c3c(c(C)[nH]c2=O)CCCC3)c1C)C1CCOCC1 | > 30 µM |
| CCN(c1cc(/C=C/c2ccc(CN3CCN(C)CC3)cc2)cc(C(=O)NCc2c3c(c(C)[nH]c2=O)CCCC3)c1C)C1CCOCC1 | 5.96 µM |
| CCN(c1cc(/C=C/c2ccc(CN3CCC4(CC3)OCCO4)cc2)cc(C(=O)NCc2c3c(c(C)[nH]c2=O)CCCC3)c1C)C1CCOCC1 | > 30 µM |
| CCN(c1cc(/C=C/c2ccc(CN3C[C@@H](C)O[C@@H](C)C3)cc2)cc(C(=O)NCc2c3c(c(C)[nH]c2=O)CCCC3)c1C)C1CCOCC1 | > 30 µM |

system: SUD4; experiment: Induction of apoptosis in human SUDHL4 cells assessed as viable cells at 1 uM after 6 days by AnnexinV/propidium iodide staining based flow cytometry analysis (reference value: 92.7 %); type: functional; conditions: SU-DHL-4, 144 h, read-out: Activity

| Compound | viability at 1 µM |
| --- | --- |
| CCN(c1cc(/C=C/c2cccc(CN(C)C)c2)cc(C(=O)NCc2c3c(c(C)[nH]c2=O)CCCC3)c1C)C1CCOCC1 | 62.3% |
